Patent US9193736B2, “PDE 10a inhibitors for the treatment of type II diabetes” (Janssen Pharmaceutica, NV, priority 2013, dated 2015)
Counter-ions that a name gives are not always drawn.

Columns and labels:
[1] = biological target: Rat recombinant PDE10a (rPDE10a) (Rattus norvegicus (Rat), UniProt Q9QYJ6); assay: In vitro assay PDE10a: rat recombinant PDE10a SPA with 3H-cAMP substrate, IC50; format: biochemical; conditions: 60 nM cAMP, read-out: rPDE10a2 IC50
Procedure, shortened: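 Enzyme expressed in Sf9 cells via baculovirus and Ni-sepharose purified; reaction with 3H-cAMP ran 60 min at rt, stopped with PDE SPA beads. Compounds diluted in DMSO at 100-fold final concentration; blanks omitted enzyme.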

[2] = biological target: Human recombinant PDE10A2 (Homo sapiens (Human), UniProt Q9Y233); assay: In vitro hPDE10a: human recombinant PDE10A2 scintillation proximity assay, IC50; format: biochemical; conditions: human recombinant PDE10A2, SPA, 60 nM cAMP; read-out: hPDE10a2 IC50
Sequence of Human recombinant PDE10A2 (Q9Y233 267-1055): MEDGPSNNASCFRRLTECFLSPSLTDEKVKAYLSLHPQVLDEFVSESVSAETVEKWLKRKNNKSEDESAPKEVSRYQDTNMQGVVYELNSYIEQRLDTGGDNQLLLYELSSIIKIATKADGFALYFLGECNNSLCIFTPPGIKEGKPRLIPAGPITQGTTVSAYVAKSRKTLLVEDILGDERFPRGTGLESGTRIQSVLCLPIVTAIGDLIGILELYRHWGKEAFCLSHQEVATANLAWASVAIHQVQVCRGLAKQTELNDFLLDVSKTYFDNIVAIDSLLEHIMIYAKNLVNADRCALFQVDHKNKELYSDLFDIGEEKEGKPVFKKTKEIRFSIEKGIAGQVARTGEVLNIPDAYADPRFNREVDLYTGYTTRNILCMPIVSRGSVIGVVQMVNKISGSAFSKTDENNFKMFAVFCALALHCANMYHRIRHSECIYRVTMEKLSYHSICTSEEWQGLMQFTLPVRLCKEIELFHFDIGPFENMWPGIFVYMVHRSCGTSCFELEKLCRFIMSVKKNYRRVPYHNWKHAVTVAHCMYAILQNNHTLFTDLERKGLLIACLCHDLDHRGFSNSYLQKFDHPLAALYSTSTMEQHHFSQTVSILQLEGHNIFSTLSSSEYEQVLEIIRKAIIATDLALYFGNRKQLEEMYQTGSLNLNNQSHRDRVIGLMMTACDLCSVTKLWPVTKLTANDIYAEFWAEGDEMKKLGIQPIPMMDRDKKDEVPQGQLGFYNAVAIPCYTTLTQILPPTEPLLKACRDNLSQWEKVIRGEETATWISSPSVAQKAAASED
Procedure, shortened: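 Purified recombinant human PDE10A2 (Ni-sepharose) was assayed by SPA, counting [3H]-AMP product captured on yttrium silicate beads added in zinc sulphate stop solution. Inhibition was expressed as % of activity without compound, with a no-enzyme low control. Repeat data points were aggregated.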

Sequence of Rat recombinant PDE10a (rPDE10a) (Q9QYJ6 whole entry): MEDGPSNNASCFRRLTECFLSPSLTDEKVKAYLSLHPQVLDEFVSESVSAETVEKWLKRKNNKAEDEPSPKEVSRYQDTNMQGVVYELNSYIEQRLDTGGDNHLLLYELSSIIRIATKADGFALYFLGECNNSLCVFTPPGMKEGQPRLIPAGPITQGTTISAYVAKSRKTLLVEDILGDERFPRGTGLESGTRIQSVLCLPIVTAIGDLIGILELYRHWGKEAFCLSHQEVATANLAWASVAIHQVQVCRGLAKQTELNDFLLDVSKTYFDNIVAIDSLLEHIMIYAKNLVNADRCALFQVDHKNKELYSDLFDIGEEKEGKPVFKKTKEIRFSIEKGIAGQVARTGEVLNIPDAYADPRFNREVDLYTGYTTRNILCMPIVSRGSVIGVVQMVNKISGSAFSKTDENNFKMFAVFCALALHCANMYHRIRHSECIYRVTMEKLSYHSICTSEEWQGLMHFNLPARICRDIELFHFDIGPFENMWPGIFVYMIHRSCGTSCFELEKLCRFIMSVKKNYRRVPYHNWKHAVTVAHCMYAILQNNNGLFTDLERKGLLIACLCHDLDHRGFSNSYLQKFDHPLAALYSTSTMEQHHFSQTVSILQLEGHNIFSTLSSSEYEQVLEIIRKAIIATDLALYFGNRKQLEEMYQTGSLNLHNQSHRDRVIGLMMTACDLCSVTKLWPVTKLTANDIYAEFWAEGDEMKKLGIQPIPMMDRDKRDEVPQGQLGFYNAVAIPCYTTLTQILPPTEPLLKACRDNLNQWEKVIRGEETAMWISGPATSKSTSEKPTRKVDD

SMILES	IC50 [1] [nM]	IC50 [2] [nM]
COc1cc2ccccc2nc1/C=C/c1nc2c(N3CCOCC3)ccnn2c1-c1ccc(C(=O)O)cc1 [Cpd 119, (E)-4-(2-(2-(3-Methoxyquinolin-2-yl)vinyl)-8-morpholinoimidazo[1,2-b]pyridazin-3-yl)benzoic acid]	6	6
CS(=O)(=O)NC(=O)c1cccc2nc(/C=C/c3nc4c(N5CCOCC5)ccnn4c3-c3ccccc3)ccc12 [Cpd 122, (E)-N-(Methylsulfonyl)-2-(2-(8-morpholino-3-phenylimidazo[1,2-b]pyridazin-2-yl)vinyl)quinoline-5-carboxamide]	7	4
CS(=O)(=O)NC(=O)CCc1ccc(-c2c(/C=C/c3ccc4ccccc4n3)nc3c(N4CCOCC4)ccnn23)cn1 [Cpd 129, (E)-N-(Methylsulfonyl)-3-(5-(8-morpholino-2-(2-(quinolin-2-yl)vinyl)imidazo[1,2-b]pyridazin-3-yl)pyridin-2-yl)propanamide trifluoroacetic acid salt]	6	2
Clc1cc(N2CCOCC2)c2nc([C@H]3C[C@H](c4ccc5ccccc5n4)C3)cn2n1 [Cpd 130, 2-[trans-3-(6-Chloro-8-morpholin-4-ylimidazo[1,2-b]pyridazin-2-yl)cyclobutyl]quinoline]	30	19
O=C(O)C1CCN(c2c(/C=C/c3ccc4ccccc4n3)nc3c(N4CCOCC4)ccnn23)CC1 [Cpd 131, (E)-1-(8-Morpholino-2-(2-(quinolin-2-yl)vinyl)imidazo[1,2-b]pyridazin-3-yl)piperidine-4-carboxylic acid trifluoroacetic acid salt]	5	7
CS(=O)(=O)NC(=O)CCc1ccc(-c2c(/C=C/c3ccc4ccccc4n3)nc3c(N4CCOCC4)ccnn23)cc1 [Cpd 132, (E)-N-(Methylsulfonyl)-3-(4-(8-morpholino-2-(2-(quinolin-2-yl)vinyl)imidazo[1,2-b]pyridazin-3-yl)phenyl)propanamide trifluoroacetic acid salt]	15	11
COc1cccc(/C=C/c2nc3c(N4CCOCC4)ccnn3c2-c2ccc(C(=O)O)cc2)n1 [Cpd 133, 4-{2-[(E)-2-(6-Methoxypyridin-2-yl)ethenyl]-8-morpholin-4-ylimidazo[1,2-b]pyridazin-3-yl}benzoic acid]	70	62
COc1cc(/C=C/c2nc3c(N4CCOCC4)ccnn3c2-c2ccc(C(=O)O)cc2)nc2ccccc12 [Cpd 135, 4-{2-[(E)-2-(4-Methoxyquinolin-2-yl)ethenyl]-8-morpholin-4-ylimidazo[1,2-b]pyridazin-3-yl}benzoic acid]	10	6
O=C(O)c1ccc(Nc2c(/C=C/c3ccc4ccccc4n3)nc3c(N4CCOCC4)ccnn23)c(F)c1 [Cpd 139, (E)-3-Fluoro-4-((8-morpholino-2-(2-(quinolin-2-yl)vinyl)imidazo[1,2-b]pyridazin-3-yl)amino)benzoic acid]	2	1
CS(=O)(=O)NC(=O)c1cccc2nc(/C=C/c3nc4c(N5CCOCC5)cc(Cl)nn4c3-c3cccnc3)ccc12 [Cpd 141, (E)-2-(2-(6-Chloro-8-morpholino-3-(pyridin-3-yl)imidazo[1,2-b]pyridazin-2-yl)vinyl)-N-(methylsulfonyl)quinoline-5-carboxamide]	23	58
CS(=O)(=O)NC(=O)c1cccc2nc(/C=C/c3nc4c(N5CCOCC5)ccnn4c3-c3ccccn3)ccc12 [Cpd 145, (E)-N-(Methylsulfonyl)-2-(2-(8-morpholino-3-(pyridin-2-yl)imidazo[1,2-b]pyridazin-2-yl)vinyl)quinoline-5-carboxamide]	2	4
O=C(O)c1ccc(-c2c([C@@H]3C[C@@H]3c3ccc4ccccc4n3)nc3c(N4CCOCC4)cc(Cl)nn23)cc1 [Cpd 147, 4-(6-Chloro-8-morpholino-2-((1R,2S)-2-(quinolin-2-yl)cyclopropyl)imidazo[1,2-b]pyridazin-3-yl)benzoic acid trifluoroacetic acid salt]	4	7
COc1cccc(-c2c(/C=C/c3ccc4c(C(=O)NS(C)(=O)=O)cccc4n3)nc3c(N4CCOCC4)ccnn23)c1 [Cpd 150, (E)-2-(2-(3-(3-Methoxyphenyl)-8-morpholinoimidazo[1,2-b]pyridazin-2-yl)vinyl)-N-(methylsulfonyl)quinoline-5-carboxamide]	6	6
O=C(O)C1CCC(Nc2c(/C=C/c3ccc4ccccc4n3)nc3c(N4CCOCC4)ccnn23)CC1 (centres unmarked) [Cpd 152, (E)-4-((8-Morpholino-2-(2-(quinolin-2-yl)vinyl)imidazo[1,2-b]pyridazin-3-yl)amino)cyclohexanecarboxylic acid]	15	7

Next, values leading:

IC50 [1] [nM]	IC50 [2] [nM]	SMILES
1	1	O=C(O)c1cccc2nc(/C=C/c3cn4nccc(N5CCOCC5)c4n3)ccc12 [Cpd 115, 2-[(E)-2-(8-Morpholin-4-ylimidazo[1,2-b]pyridazin-2-yl)ethenyl]quinoline-5-carboxylic acid]
1	< 1	O=C(NO)c1cccc2nc(/C=C/c3cn4nccc(N5CCOCC5)c4n3)ccc12 [Cpd 118, N-Hydroxy-2-[(E)-2-(8-morpholin-4-ylimidazo[1,2-b]pyridazin-2-yl)ethenyl]quinoline-5-carboxamide]
2	3	CS(=O)(=O)NC(=O)c1ccc(-c2c(CSc3ccc4ccccc4n3)nc3c(N4CCOCC4)ccnn23)cc1 [Cpd 120, N-(Methylsulfonyl)-4-(8-morpholino-2-((quinolin-2-ylthio)methyl)imidazo[1,2-b]pyridazin-3-yl)benzamide]
1	2	O=C(O)c1cc(/C=C/c2cn3nc(Cl)cc(N4CCOCC4)c3n2)nc2ccccc12 [Cpd 126, 2-[(E)-2-(6-Chloro-8-morpholin-4-ylimidazo[1,2-b]pyridazin-2-yl)ethenyl]quinoline-4-carboxylic acid]
1	3	O=C(O)c1cccc2nc(/C=C/c3nc4c(N5CCOCC5)ccnn4c3-c3cccnc3)ccc12 [Cpd 137, (E)-2-(2-(8-Morpholino-3-(pyridin-3-yl)imidazo[1,2-b]pyridazin-2-yl)vinyl)quinoline-5-carboxylic acid sodium salt]
2	5	O=C(O)c1ccc(Nc2c(/C=C/c3ccc4ccccc4n3)nc3c(N4CCOCC4)ccnn23)cc1 [Cpd 138, (E)-4-((8-Morpholino-2-(2-(quinolin-2-yl)vinyl)imidazo[1,2-b]pyridazin-3-yl)amino)benzoic acid]
< 1	1	O=C(O)c1cc2ccccc2nc1/C=C/c1cn2nc(Cl)cc(N3CCOCC3)c2n1 [Cpd 143, 2-[(E)-2-(6-Chloro-8-morpholin-4-ylimidazo[1,2-b]pyridazin-2-yl)ethenyl]quinoline-3-carboxylic acid]
< 1	< 1	O=C(O)c1cc2ccccc2nc1/C=C/c1cn2nccc(N3CCOCC3)c2n1 [Cpd 144, 2-[(E)-2-(8-Morpholin-4-ylimidazo[1,2-b]pyridazin-2-yl)ethenyl]quinoline-3-carboxylic acid]
